The experiment has as its target T1, human LPA1 (Homo sapiens, UniProt Q92633).
T1 construct: the full-length cDNA for human LPA1 was obtained by PCR of the reverse transcription reaction; expressed in transfected cells
The experiment in a line: LPA1 calcium flux assay. Format: cell-based. To be noted: CHO cells expressing human LPA1, stimulated with 10 nM LPA; read-out: HLPA1 Ca Flux IC50. The procedure:
A 1.1 kb cDNA encoding the human LPA1 receptor was cloned from human lung. Human lung RNA (Clontech Laboratories, Inc. USA) was reverse transcribed using the RETROscript kit (Ambion, Inc.) and the full-length cDNA for human LPA1 was obtained by PCR of the reverse transcription reaction. The nucleotide sequence of the cloned human LPA1 was determined by sequencing and confirmed to be identical to the published human LPA1 sequence (An et al. Biochenm. Biophys. Res. Commun. 231:619 (1997). The cDNA was cloned into the pCDNA5/FRT expression plasmid and transfected in CHO cells using lipofectamine 2000 (Invitrogen Corp., USA). Clones stably expressing human LPA1 were selected using hygromycin and identified as cells that show Ca-influx in response to LPA.
Human LPA1 or LPA3 expressing CHO cells are seeded at 20,000-45,000 cells per well in a 96-well poly-D-lysine coated plate one or two days before the assay. Prior to the assay, the cells are washed once with PBS and then cultured in serum-free media overnight. On the day of the assay, a calcium indicator dye (Calcium 4, Molecular Devices) in assay buffer (HBSS with Ca^2+ and Mg^2+ and containing 20 mM Hepes and 0.3% fatty-acid free human serum albumin) is added to each well and incubation continued for 1 hour at 37° C. 10 μl of test compounds in 2.5% DMSO are added to the cells and incubation continued at room temperature for 30 minutes. Cells are the stimulated by the addition of 10 nM LPA and intracellular Ca^2+ measured using the Flexstation 3 (Molecular Devices). IC50s are determined using Graphpad prism analysis of drug titration curves.
T1 sequence (Q92633 whole entry): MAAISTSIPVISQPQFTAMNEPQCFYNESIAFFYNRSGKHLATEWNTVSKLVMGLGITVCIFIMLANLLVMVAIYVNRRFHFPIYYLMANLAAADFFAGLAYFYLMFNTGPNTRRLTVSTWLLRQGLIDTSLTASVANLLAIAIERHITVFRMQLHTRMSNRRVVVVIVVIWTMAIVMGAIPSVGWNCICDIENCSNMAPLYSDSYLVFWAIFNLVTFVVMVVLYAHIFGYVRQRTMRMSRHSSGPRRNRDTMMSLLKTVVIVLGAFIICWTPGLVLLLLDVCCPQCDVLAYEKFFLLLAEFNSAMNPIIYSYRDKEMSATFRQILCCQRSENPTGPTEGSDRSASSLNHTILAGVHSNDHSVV
For `Cc1noc(-c2ccc(-c3ccc(C4(C(=O)O)CC4)cc3)cc2)c1CNC(=O)C(C)(C)c1ccccc1` [Compound 1-98, 1-(4′-{3-Methyl-4-[(2-methyl-2-phenyl-propionylamino)-methyl]-isoxazol-5-yl}-biphenyl-4-yl)-cyclopropanecarboxylic acid], the 50% inhibitory concentration (IC50) was less than 300 nM. The figure for `COc1ccc(CCC(C)Nc2c(C)noc2-c2ccc(-c3ccc(C4(CC(=O)O)CC4)cc3)cc2)cc1` (stereo not drawn) [Compound 1-211, [1-(4′-{4-[3-(4-Methoxy-phenyl)-1-methyl-propylamino]-3-methyl-isoxazol-5-yl}-biphenyl-4-yl)-cyclopropyl]-acetic acid] is 300 to 1000 nM; for `Cc1noc(-c2ccc(-c3ccc(C4(C(=O)O)CC4)cc3)cc2)c1C(O)CN[C@H]1CCc2ccccc21` (stereo partly drawn) [Compound 1-187, 1-(4′-{4-[1-Hydroxy-2-((S)-indan-1-ylamino)-ethyl]-3-methyl-isoxazol-5-yl}-biphenyl-4-yl)-cyclopropanecarboxylic acid] it is less than 300 nM; for `Cc1noc(-c2ccc(-c3ccc(C4(C(=O)O)CC4)cc3)cc2)c1CSCc1ccccc1` [Compound 1-50, 1-[4′-(4-Benzylsulfanylmethyl-3-methyl-isoxazol-5-yl)-biphenyl-4-yl]-cyclopropanecarboxylic acid] it is 1000 to 50000 nM.

With `COc1cncc(Nc2c(C)noc2-c2ccc(-c3ccc(C4(C(=O)O)CC4)cc3)cc2)c1` [Compound 1-291, 1-{4′-[4-(5-Methoxy-pyridin-3-ylamino)-3-methyl-isoxazol-5-yl]-biphenyl-4-yl}-cyclopropanecarboxylic acid], the IC50 is less than 300 nM.

As for `Cc1noc(-c2ccc(-c3ccc(C4(C(=O)O)CC4)cc3)cc2)c1CCC(=O)NCc1ccccc1` [Compound 1-42, 1-{4′-[4-(2-Benzylcarbamoyl-ethyl)-3-methyl-isoxazol-5-yl]-biphenyl-4-yl}-cyclopropanecarboxylic acid], the IC50 lay in the range of 1000 to 50000 nM. The figure for `COc1ccc(CCC(O)c2c(C)noc2-c2ccc(-c3ccc(C4(CC(=O)O)CC4)cc3)cc2)cc1` (stereo not drawn) [Compound 1-247, [1-(4′-{4-[1-Hydroxy-3-(4-methoxy-phenyl)-propyl]-3-methyl-isoxazol-5-yl}-biphenyl-4-yl)-cyclopropyl]-acetic acid] is 1000 to 50000 nM.

As for `Cc1noc(-c2ccc(-c3ccc(C4(CC(=O)NS(C)(=O)=O)CC4)cc3)cc2)c1C(O)CCCc1ccccc1` (stereo not drawn) [Compound 2-16, N-[2-(1-{4′-[4-(1-Hydroxy-4-phenyl-butyl)-3-methyl-isoxazol-5-yl]-biphenyl-4-yl}-cyclopropyl)-acetyl]-methanesulfonamide], the half-maximal inhibitory concentration (IC50) is less than 300 nM. On to `Cc1noc(-c2ccc(-c3ccc(CCC(=O)O)cc3)cc2)c1NC(C)CCc1cccc(C(F)(F)F)c1` (stereo not drawn) [Compound 1-192, 3-(4′-{3-Methyl-4-[1-methyl-3-(3-trifluoromethyl-phenyl)-propylamino]-isoxazol-5-yl}-biphenyl-4-yl)-propionic acid], for which the IC50 is less than 300 nM. For the molecule `Cc1noc(-c2ccc(-c3ccc(C4(C(=O)O)CC4)cc3)cc2)c1CC(=O)N1Cc2ccccc2C1` [Compound 1-66, 1-(4′-{4-[2-(1,3-Dihydro-isoindol-2-yl)-2-oxo-ethyl]-3-methyl-isoxazol-5-yl}-biphenyl-4-yl)-cyclopropanecarboxylic acid], the IC50 is greater than 50000 nM. As to `CCC(C(=O)O)c1ccc(-c2ccc(-c3onc(C)c3CSCCc3ccccc3)cc2)cc1` (stereo not drawn) [Compound 1-122, 2-[4′-(3-Methyl-4-phenethylsulfanylmethyl-isoxazol-5-yl)-biphenyl-4-yl]-butyric acid], the concentration for half-maximal inhibition (IC50) is less than 300 nM. For the molecule `Cc1noc(-c2ccc(-c3ccc(C4(C(=O)O)CC4)cc3)cc2)c1CCC(=O)Nc1ccccc1` [Compound 1-43, 1-{4′-[3-Methyl-4-(2-phenylcarbamoyl-ethyl)-isoxazol-5-yl]-biphenyl-4-yl}-cyclopropanecarboxylic acid], the IC50 was greater than 50000 nM. With `Cc1noc(-c2ccc(-c3ccc(CCC(=O)O)cc3)cc2)c1[C@H](O)CSCc1ccccc1` [Compound 1-273, 3-{4′-[4-((S)-2-Benzylsulfanyl-1-hydroxy-ethyl)-3-methyl-isoxazol-5-yl]-biphenyl-4-yl}-propionic acid], the half-inhibitory concentration (IC50) was less than 300 nM.

`Cc1noc(-c2ccc(-c3ccc(C4(CC(=O)O)CC4)cc3)cc2)c1C(O)CCCc1ccccc1` (stereo not drawn) [Compound 1-140, (1-{4′-[4-(1-Hydroxy-4-phenyl-butyl)-3-methyl-isoxazol-5-yl]-biphenyl-4-yl}-cyclopropyl)-acetic acid]: the concentration for half-maximal inhibition (IC50) is less than 300 nM. In the case of `Cc1noc(-c2ccc(-c3ccc(C4(C(=O)NS(C)(=O)=O)CC4)cc3)cc2)c1[C@@H](COCc1ccccc1)OC(=O)NS(C)(=O)=O` [Compound 2-4, N-Sulfonylmethyl carbamic acid (S)-2-benzyloxy-1-{5-[4′-(1-methanesulfonylaminocarbonyl-cyclopropyl)-biphenyl-4-yl]-3-methyl-isoxazol-4-yl}-ethyl ester], the half-maximal inhibitory concentration (IC50) is less than 300 nM. In the case of `Cc1noc(-c2ccc(-c3ccc(C4(CC(=O)O)CC4)cc3)cc2)c1NC(C)c1ccc2ccccc2c1` (stereo not drawn) [Compound 1-206, (1-{4′-[3-Methyl-4-(1-naphthalen-2-yl-ethylamino)-isoxazol-5-yl]-biphenyl-4-yl}-cyclopropyl)-acetic acid], the half-inhibitory concentration (IC50) is less than 300 nM. Regarding `Cc1noc(-c2ccc(-c3ccc(C4(C(=O)O)CC4)cc3)cc2)c1/C=C/CN(Cc1ccccc1)S(C)(=O)=O` [Compound 1-139, 1-(4′-{4-[3-(Benzyl-methanesulfonyl-amino)-propenyl]-3-methyl-isoxazol-5-yl}-biphenyl-4-yl)-cyclopropanecarboxylic acid], the half-inhibitory concentration (IC50) was less than 300 nM. Consider `COc1ccc(CC(C)Nc2c(C)noc2-c2ccc(-c3ccc(C4(CC(=O)O)CC4)cc3)cc2)cc1` (stereo not drawn) [Compound 1-236, [1-(4′-{4-[2-(4-Methoxy-phenyl)-1-methyl-ethylamino]-3-methyl-isoxazol-5-yl}-biphenyl-4-yl)-cyclopropyl]-acetic acid], for which the IC50 was 1000 to 50000 nM. Take `Cc1noc(-c2ccc(-c3ccc(C4(C(=O)O)CC4)cc3)cc2)c1Nc1cccc(OC(C)(C)C)n1` [Compound 1-301, 1-{4′-[4-(6-tert-Butoxy-pyridin-2-ylamino)-3-methyl-isoxazol-5-yl]-biphenyl-4-yl}-cyclopropanecarboxylic acid]: the IC50 is less than 300 nM.

On to `Cc1noc(-c2ccc(-c3ccc(C4(C(=O)O)CC4)cc3)cc2)c1Nc1cccc(C(N)=O)n1` [Compound 1-312, 1-{4′-[4-(6-Carbamoyl-pyridin-2-ylamino)-3-methyl-isoxazol-5-yl]-biphenyl-4-yl}-cyclopropanecarboxylic acid], for which the IC50 is less than 300 nM.

For `Cc1noc(-c2ccc(-c3ccccc3CC(=O)O)cc2)c1NC(C)CCCO` (stereo not drawn) [Compound 1-231, {4′-[4-(4-Hydroxy-1-methyl-butylamino)-3-methyl-isoxazol-5-yl]-biphenyl-2-yl}-acetic acid], the IC50 fell in the range of 1000 to 50000 nM. Regarding `Cc1noc(-c2ccc(-c3ccc(C4(C(=O)O)CC4)cc3)cc2)c1Nc1cccc(C(=O)NCCN(C)C)n1` [Compound 1-299, 1-(4′-{4-[6-(2-Dimethylamino-ethylcarbamoyl)-pyridin-2-ylamino]-3-methyl-isoxazol-5-yl}-biphenyl-4-yl)-cyclopropanecarboxylic acid], the IC50 lay in the range of 1000 to 50000 nM. Regarding `Cc1noc(-c2ccc(-c3ccc(C4(C(=O)O)CC4)cc3)cc2)c1Nc1cccc(Br)n1` [Compound 1-313, 1-{4′-[4-(6-Bromo-pyridin-2-ylamino)-3-methyl-isoxazol-5-yl]-biphenyl-4-yl}-cyclopropanecarboxylic acid], the 50% inhibitory concentration (IC50) is less than 300 nM. Consider `Cc1noc(-c2ccc(-c3ccc(CCC(=O)O)cc3)cc2)c1C(O)CCCc1ccccc1` (stereo not drawn) [Compound 1-197, 3-{4′-[4-(1-Hydroxy-4-phenyl-butyl)-3-methyl-isoxazol-5-yl]-biphenyl-4-yl}-propionic acid], for which the IC50 was less than 300 nM. `Cc1noc(-c2ccc(-c3ccc(C4(C(=O)O)CC4)cc3)cc2)c1Nc1cccnc1` [Compound 1-290, 1-{4′-[3-Methyl-4-(pyridin-3-ylamino)-isoxazol-5-yl]-biphenyl-4-yl}-cyclopropanecarboxylic acid]: the 50% inhibitory concentration (IC50) lay within 1000 to 50000 nM. With `Cc1noc(-c2ccc(-c3ccc(C4(C(=O)O)CC4)cc3)cc2)c1NC(C)COc1ccccc1` (stereo not drawn) [Compound 1-279, 1-{4′-[3-Methyl-4-(1-methyl-2-phenoxy-ethylamino)-isoxazol-5-yl]-biphenyl-4-yl}-cyclopropanecarboxylic acid], the concentration for half-maximal inhibition (IC50) was less than 300 nM. In the case of `Cc1noc(-c2ccc(-c3ccc(CCC(=O)O)cc3)cc2)c1C(O)COCc1cccc(C(F)(F)F)c1` (stereo not drawn) [Compound 1-242, 3-(4′-{4-[1-Hydroxy-2-(3-trifluoromethyl-benzyloxy)-ethyl]-3-methyl-isoxazol-5-yl}-biphenyl-4-yl)-propionic acid], the 50% inhibitory concentration (IC50) lay in the range of 300 to 1000 nM.

Source of the values: US9624182B2, “Compounds as lysophosphatidic acid receptor antagonists” (Amira Pharmaceuticals, Inc., priority 2009, dated 2017).
